Experimental data reported in patent publication US20120029187A1, “HALOALKYLSULFONANILIDE DERIVATIVE” (Nissan Chemical Industries, Ltd., priority 2009, published 2012).

Tests used:
Format in all cases: in vivo
barnyardgrass [1] = experiment: Test Example 1: herbicidal effects in preemergence treatment under submerged conditions; conditions: dose 2.52 g/a
Summary of the method: (§1)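 Alluvial soil flooded to 4 cm depth; barnyardgrass, bulrush and ducksalad sown and 2.5-leaf rice seedlings transplanted. Same day, water-diluted emulsifiable concentrates applied to the water surface at set doses (g/a). Kept at 25–30 °C in greenhouse; effects scored 0–5 by mortality after three weeks.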

ducksalad [2] = experiment: as above; conditions: dose 2.52 g/a
Summary of the method: as §1

bulrush [3] = experiment: as above; conditions: dose 2.52 g/a
Summary of the method: as §1

posumbu knotweed [4] = experiment: Test Example 4: herbicidal effect in foliage treatment; conditions: dose 3.2 g/a, three weeks after application
Summary of the method: (§2)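 Foliar spray, post-emergence: 14-day-old greenhouse plants (25–30° C, diluvial soil) treated with water-diluted EC at set g/a doses; visual herbicidal score at 3 wk post-application.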

redroot pigweed [5] = experiment: as above; conditions: dose 3.2 g/a, three weeks after application
Summary of the method: as §2

common ragweed [6] = experiment: as above; conditions: dose 3.2 g/a, three weeks after application
Summary of the method: as §2

beadstraw = experiment: as above; conditions: dose 3.2 g/a, three weeks after application
Summary of the method: as §2

barnyardgrass [7] = experiment: as above; conditions: dose 3.2 g/a, three weeks after application
Summary of the method: as §2

water foxtail [8] = experiment: as above; conditions: dose 3.2 g/a, three weeks after application
Summary of the method: as §2

giant foxtail [9] = experiment: as above; conditions: dose 3.2 g/a, three weeks after application
Summary of the method: as §2

Italian ryegrass [10] = experiment: as above; conditions: dose 3.2 g/a, three weeks after application
Summary of the method: as §2

common lambsquater [11] = experiment: as above; conditions: dose 3.2 g/a, three weeks after application
Summary of the method: as §2

large crabgrass [12] = experiment: as above; conditions: dose 3.2 g/a, three weeks after application
Summary of the method: as §2

common chickweed [13] = experiment: as above; conditions: dose 3.2 g/a, three weeks after application
Summary of the method: as §2

velvetleaf [14] = experiment: as above; conditions: dose 3.2 g/a, three weeks after application
Summary of the method: as §2

posumbu knotweed [15] = experiment: Test Example 3: herbicidal effects in soil treatment; conditions: dose 3.2 g/a
Summary of the method: (§3)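 Seeds were sown in sterilized diluvial soil and covered with about 1.5 cm of soil. Compounds, formulated as emulsifiable concentrates and diluted with water, were sprayed evenly over the soil surface at set doses in g/a. Herbicidal effect was scored on a rating scale three weeks later.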

redroot pigweed [16] = experiment: as above; conditions: dose 3.2 g/a
Summary of the method: as §3

common ragweed [17] = experiment: as above; conditions: dose 3.2 g/a
Summary of the method: as §3

barnyardgrass [18] = experiment: as above; conditions: dose 3.2 g/a
Summary of the method: as §3

water foxtail [19] = experiment: as above; conditions: dose 3.2 g/a
Summary of the method: as §3

giant foxtail [20] = experiment: as above; conditions: dose 3.2 g/a
Summary of the method: as §3

Italian ryegrass [21] = experiment: as above; conditions: dose 3.2 g/a
Summary of the method: as §3

common lambsquater [22] = experiment: as above; conditions: dose 3.2 g/a
Summary of the method: as §3

large crabgrass [23] = experiment: as above; conditions: dose 3.2 g/a
Summary of the method: as §3

common chickweed [24] = experiment: as above; conditions: dose 3.2 g/a
Summary of the method: as §3

velvetleaf [25] = experiment: as above; conditions: dose 3.2 g/a
Summary of the method: as §3

transplanted rice = experiment: Test Example 1: preemergence treatment under submerged conditions, effect on crop; conditions: dose 2.52 g/a
Summary of the method: as §1

barnyardgrass [26] = experiment: Test Example 2: herbicidal effects during the vegetation period under submerged conditions; conditions: treatment during the vegetation period under submerged conditions; dose 2.52 g/a
Summary of the method: (§4)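 Barnyardgrass, bulrush and ducksalad were co-sown in alluvial soil flooded to 4 cm and grown in a greenhouse at 25 to 30° C. At the 1- or 2-leaf stage, water-diluted emulsifiable concentrates went onto the water surface at set doses (g/a). Herbicidal effect was scored three weeks later on a graded scale.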

ducksalad [27] = experiment: as above; conditions: treatment during the vegetation period under submerged conditions; dose 2.52 g/a
Summary of the method: as §4

bulrush [28] = experiment: as above; conditions: treatment during the vegetation period under submerged conditions; dose 2.52 g/a
Summary of the method: as §4

SMILES | A: barnyardgrass, herbicidal effect (evaluation scale 0-5) (barnyardgrass [1]) | C: ducksalad, herbicidal effect (evaluation scale 0-5) (ducksalad [2]) | B: bulrush, herbicidal effect (evaluation scale 0-5) (bulrush [3]) | M: posumbu knotweed, herbicidal effect (posumbu knotweed [4]) | K: redroot pigweed, herbicidal effect (redroot pigweed [5]) | J: common ragweed, herbicidal effect (common ragweed [6]) | O: beadstraw, herbicidal effect (beadstraw) | A: barnyardgrass, herbicidal effect (barnyardgrass [7]) | G: water foxtail, herbicidal effect (water foxtail [8]) | E: giant foxtail, herbicidal effect (giant foxtail [9]) | H: Italian ryegrass, herbicidal effect (Italian ryegrass [10]) | L: common lambsquater, herbicidal effect (common lambsquater [11]) | D: large crabgrass, herbicidal effect (large crabgrass [12]) | N: common chickweed, herbicidal effect (common chickweed [13]) | I: velvetleaf, herbicidal effect (velvetleaf [14]) | M: posumbu knotweed, herbicidal effect (evaluation scale 0-5) (posumbu knotweed [15]) | K: redroot pigweed, herbicidal effect (evaluation scale 0-5) (redroot pigweed [16]) | J: common ragweed, herbicidal effect (evaluation scale 0-5) (common ragweed [17]) | A: barnyardgrass, herbicidal effect (evaluation scale 0-5) (barnyardgrass [18]) | G: water foxtail, herbicidal effect (evaluation scale 0-5) (water foxtail [19]) | further results
CCOC(=O)N(c1ccccc1CN1COC(C)(C)C(Br)C1=O)S(=O)(=O)C(F)(F)F (stereo not drawn) [II-39, 5-bromo-6,6-dimethyl-3-[2-(N-ethoxylcarbonyl-N-trifluoromethanesulfonyl)aminobenzyl]-1,3-oxazinan-4-one] | 5 (mortality of 90% or above (nearly complete death)) | 5 (mortality of 90% or above (nearly complete death)) | 5 (mortality of 90% or above (nearly complete death)) | 3 (mortality of at least 40% and less than 70%) | 4 (mortality of at least 70% and less than 90%) | 5 (mortality of 90% or above (nearly complete death)) | 4 (mortality of at least 70% and less than 90%) | 5 (mortality of 90% or above (nearly complete death)) | 5 (mortality of 90% or above (nearly complete death)) | 5 (mortality of 90% or above (nearly complete death)) | 3 (mortality of at least 40% and less than 70%) | 3 (mortality of at least 40% and less than 70%) | 4 (mortality of at least 70% and less than 90%) | 4 (mortality of at least 70% and less than 90%) | 5 (mortality of 90% or above (nearly complete death)) | 5 (mortality of 90% or above (nearly complete death)) | 1 (mortality of at least 5% and less than 20%) | 4 (mortality of at least 70% and less than 90%) | 5 (mortality of 90% or above (nearly complete death)) | 5 (mortality of 90% or above (nearly complete death)) | E: giant foxtail, herbicidal effect (evaluation scale 0-5) (giant foxtail [20]): 5 (mortality of 90% or above (nearly complete death)); H: Italian ryegrass, herbicidal effect (evaluation scale 0-5) (Italian ryegrass [21]): 5 (mortality of 90% or above (nearly complete death)); L: common lambsquater, herbicidal effect (evaluation scale 0-5) (common lambsquater [22]): 5 (mortality of 90% or above (nearly complete death)); D: large crabgrass, herbicidal effect (evaluation scale 0-5) (large crabgrass [23]): 5 (mortality of 90% or above (nearly complete death)); N: common chickweed, herbicidal effect (evaluation scale 0-5) (common chickweed [24]): 5 (mortality of 90% or above (nearly complete death)); I: velvetleaf, herbicidal effect (evaluation scale 0-5) (velvetleaf [25]): 5 (mortality of 90% or above (nearly complete death)); a: transplanted rice, effect on crop (evaluation scale 0-5) (transplanted rice): 0 (mortality of less than 5% (almost ineffective)); A: barnyardgrass, herbicidal effect (evaluation scale 0-5) (barnyardgrass [26]): 5 (mortality of 90% or above (nearly complete death)); C: ducksalad, herbicidal effect (evaluation scale 0-5) (ducksalad [27]): 5 (mortality of 90% or above (nearly complete death)); B: bulrush, herbicidal effect (evaluation scale 0-5) (bulrush [28]): 5 (mortality of 90% or above (nearly complete death))
CCC(=O)N(c1ccccc1CN1COC(C)(CC)CC1=O)S(=O)(=O)C(F)(F)F (stereo not drawn) [II-41] | 5 (mortality of 90% or above (nearly complete death)) | 5 (mortality of 90% or above (nearly complete death)) | 5 (mortality of 90% or above (nearly complete death)) | 0 (mortality of less than 5% (almost ineffective)) | 0 (mortality of less than 5% (almost ineffective)) | 3 (mortality of at least 40% and less than 70%) | 4 (mortality of at least 70% and less than 90%) | 5 (mortality of 90% or above (nearly complete death)) | 5 (mortality of 90% or above (nearly complete death)) | 4 (mortality of at least 70% and less than 90%) | 4 (mortality of at least 70% and less than 90%) | 2 (mortality of at least 20% and less than 40%) | 1 (mortality of at least 5% and less than 20%) | 3 (mortality of at least 40% and less than 70%) | 5 (mortality of 90% or above (nearly complete death)) | 4 (mortality of at least 70% and less than 90%) | 2 (mortality of at least 20% and less than 40%) | 4 (mortality of at least 70% and less than 90%) | 5 (mortality of 90% or above (nearly complete death)) | 5 (mortality of 90% or above (nearly complete death)) | E: giant foxtail, herbicidal effect (evaluation scale 0-5) (giant foxtail [20]): 4 (mortality of at least 70% and less than 90%); H: Italian ryegrass, herbicidal effect (evaluation scale 0-5) (Italian ryegrass [21]): 5 (mortality of 90% or above (nearly complete death)); L: common lambsquater, herbicidal effect (evaluation scale 0-5) (common lambsquater [22]): 3 (mortality of at least 40% and less than 70%); D: large crabgrass, herbicidal effect (evaluation scale 0-5) (large crabgrass [23]): 4 (mortality of at least 70% and less than 90%); N: common chickweed, herbicidal effect (evaluation scale 0-5) (common chickweed [24]): 5 (mortality of 90% or above (nearly complete death)); I: velvetleaf, herbicidal effect (evaluation scale 0-5) (velvetleaf [25]): 5 (mortality of 90% or above (nearly complete death)); a: transplanted rice, effect on crop (evaluation scale 0-5) (transplanted rice): 0 (mortality of less than 5% (almost ineffective)); A: barnyardgrass, herbicidal effect (evaluation scale 0-5) (barnyardgrass [26]): 5 (mortality of 90% or above (nearly complete death)); C: ducksalad, herbicidal effect (evaluation scale 0-5) (ducksalad [27]): 5 (mortality of 90% or above (nearly complete death)); B: bulrush, herbicidal effect (evaluation scale 0-5) (bulrush [28]): 5 (mortality of 90% or above (nearly complete death))
